Experimental data taken from patent US8309577B2, “Quinuclidine compounds as α-7 nicotinic acetylcholine receptor ligands” (Bristol-Myers Squibb Company, priority 2008, dated 2012).
Where two headings read alike, the source gives them in different places.

Key:
[1] = biological target: T1, α-7 nicotinic acetylcholine receptor channel expressed in HEK 293 cells (Rattus norvegicus, UniProt Q05941); assay: Ca2+-sensitive fluorescence-based FLIPR assay, α7 nicotinic ACh receptor channel function (agonist); assay type: cell-based
T1 construct: expressed in transfected cells
T1 sequence (Q05941 23-502): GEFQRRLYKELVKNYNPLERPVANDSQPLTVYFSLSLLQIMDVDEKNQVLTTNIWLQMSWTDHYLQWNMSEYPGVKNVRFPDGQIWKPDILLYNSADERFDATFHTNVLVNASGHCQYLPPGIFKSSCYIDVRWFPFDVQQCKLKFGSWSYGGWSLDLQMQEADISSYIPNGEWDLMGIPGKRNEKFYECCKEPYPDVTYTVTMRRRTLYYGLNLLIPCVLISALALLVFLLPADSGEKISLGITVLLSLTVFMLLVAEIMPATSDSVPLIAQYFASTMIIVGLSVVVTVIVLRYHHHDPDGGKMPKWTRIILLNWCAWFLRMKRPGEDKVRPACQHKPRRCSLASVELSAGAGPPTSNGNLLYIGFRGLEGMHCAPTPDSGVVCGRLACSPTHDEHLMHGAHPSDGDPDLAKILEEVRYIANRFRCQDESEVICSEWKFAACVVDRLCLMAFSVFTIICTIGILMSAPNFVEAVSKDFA
Outline: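 Potency and efficacy derived from kinetic FLIPR Ca²⁺-flux fluorescence, recorded 3 min after compound addition in Hanks buffer following a 10 s baseline.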

[2] = FLIPR α7 activity rating (EC50, nM), Table 1, HEK 293 cells, agonist Ca2+ flux
[3] = FLIPR α7 activity rating (EC50, nM), Table Ib, HEK 293 cells, agonist Ca2+ flux
[4] = FLIPR α7 (EC50, nM), Table Ib, HEK 293 cells, agonist Ca2+ flux

Row | SMILES | EC50 [1, 3] | also measured
1 | c1ccc(-c2cnc(NC3=NCC4(CN5CCC4CC5)O3)s2)cc1 (stereo not drawn) [Example 4, N-(5-Phenylthiazol-2-yl)-4H-1′-azaspiro[oxazole-5,3′-bicyclo[2.2.2]octan]-2-amine] |  | EC50 [1, 2]: < 100 nM; melting point: 187 to 189 °C
2 | c1ccc2[nH]c(NC3=NCC4(CN5CCC4CC5)O3)nc2c1 (stereo not drawn) [Example 8, N-(1H-benzo[d]imidazol-2-yl)-4H-1′-azaspiro[oxazole-5,3′-bicyclo[2.2.2]octan]-2-amine] |  | EC50 [1, 2]: 100 to 1000 nM; melting point: 255 °C (dec.)
3 | FC(F)Oc1ccc2nc(NC3=NC[C@@]4(CN5CCC4CC5)O3)sc2c1 [Example 22, (R)—N-(6-(Difluoromethoxy)benzo[d]thiazol-2-yl)-4H-1′-azaspiro[oxazole-5,3′-bicyclo[2.2.2]octan]-2-amine] |  | EC50 [1, 2]: 100 to 1000 nM; melting point: 223 to 225 °C
4 | FC(F)Oc1cc(NC2=NC[C@@]3(CN4CCC3CC4)O2)ncn1 [Example 144] |  | EC50 [1, 2]: < 100 nM; melting point: 185 to 190 °C
5 | c1ccc2nc(NC3=NC[C@@]4(CN5CCC4CC5)O3)cnc2c1 [Example 220] |  | EC50 [1, 2]: < 100 nM; melting point: 212 to 215 °C
6 | FC(F)COc1cc(NC2=NC[C@@]3(CN4CCC3CC4)O2)ncn1 [Example 233, (R)—N-(6-(2,2-Difluoroethoxy)pyrimidin-4-yl)-4H-1′-azaspiro[oxazole-5,3′-bicyclo[2.2.2]octan]-2-amine] |  | EC50 [1, 2]: < 100 nM; melting point: 83 to 88 °C
7 | COc1cccc(-c2cc(NC3=NC[C@@]4(CN5CCC4CC5)O3)ncn2)c1 [Example 238, (R)—N-(6-(3-Methoxyphenyl)pyrimidin-4-yl)-4H-1′-azaspiro[oxazole-5,3′-bicyclo[2.2.2]octan]-2-amine] |  | EC50 ([1]; FLIPR α7 (EC50, nM), Table 1, HEK 293 cells, agonist Ca2+ flux): 16 nM; EC50 [1, 2]: < 100 nM; melting point: 80 to 85 °C
8 | Fc1cccc2nc(NC3=NC[C@@]4(CN5CCC4CC5)O3)ncc12 [Example 323, (R)—N-(5-Fluoroquinazolin-2-yl)-4H-1′-azaspiro[oxazole-5,3′-bicyclo[2.2.2]octan]-2-amine] | < 100 nM | 
9 | Cc1nc(NC2=NC[C@@]3(CN4CCC3CC4)O2)nc2cc(F)ccc12 [Example 324, (R)—N-(7-Fluoro-4-methylquinazolin-2-yl)-4H-1′-azaspiro[oxazole-5,3′-bicyclo[2.2.2]octan]-2-amine] | < 100 nM | 
10 | Cc1nc(NC2=NC[C@@]3(CN4CCC3CC4)O2)cc2cc(F)ccc12 [Example 325, (R)—N-(6-Fluoro-1-methylisoquinolin-3-yl)-4H-1′-azaspiro[oxazole-5,3′-bicyclo[2.2.2]octan]-2-amine] | 100 to 1000 nM | EC50 [1, 4]: 139 nM
11 | Cc1nc(NC2=NC[C@@]3(CN4CCC3CC4)O2)cc2cc(Cl)ccc12 [Example 326, (R)—N-(6-Chloro-1-methylisoquinolin-3-yl)-4H-1′-azaspiro[oxazole-5,3′-bicyclo[2.2.2]octan]-2-amine] | 100 to 1000 nM | 
12 | Cc1nc(NC2=NC[C@@]3(CN4CCC3CC4)O2)cc2ccc(F)cc12 [Example 327, (R)—N-(7-Fluoro-1-methylisoquinolin-3-yl)-4H-1′-azaspiro[oxazole-5,3′-bicyclo[2.2.2]octan]-2-amine] | 100 to 1000 nM | 
13 | Cc1nc(NC2=NC[C@@]3(CN4CCC3CC4)O2)cc2c(F)cc(F)cc12 [Example 328, (R)—N-(5,7-Difluoro-1-methylisoquinolin-3-yl)-4H-1′-azaspiro[oxazole-5,3′-bicyclo[2.2.2]octan]-2-amine] | 100 to 1000 nM | 
14 | CSc1ccc(-c2cc(NC3=NC[C@@]4(CN5CCC4CC5)O3)ncn2)cn1 [Example 329, (R)—N-(6-(6-(Methylthio)pyridin-3-yl)pyrimidin-4-yl)-4H-1′-azaspiro[oxazole-5,3′-bicyclo[2.2.2]octan]-2-amine] | < 100 nM | 
15 | Fc1ncccc1-c1cc(NC2=NC[C@@]3(CN4CCC3CC4)O2)ncn1 [Example 330, (R)—N-(6-(2-Fluoropyridin-3-yl)pyrimidin-4-yl)-4H-1′-azaspiro[oxazole-5,3′-bicyclo[2.2.2]octan]-2-amine] | < 100 nM | 
16 | Fc1ccc(-c2cc(NC3=NC[C@@]4(CN5CCC4CC5)O3)ncn2)cn1 [Example 331, (R)—N-(6-(6-Fluoropyridin-3-yl)pyrimidin-4-yl)-4H-1′-azaspiro[oxazole-5,3′-bicyclo[2.2.2]octan]-2-amine] | < 100 nM | 
17 | Fc1cncc(-c2cc(NC3=NC[C@@]4(CN5CCC4CC5)O3)ncn2)c1 [Example 332, (R)—N-(6-(5-Fluoropyridin-3-yl)pyrimidin-4-yl)-4H-1′-azaspiro[oxazole-5,3′-bicyclo[2.2.2]octan]-2-amine] | < 100 nM | 
18 | Cn1nccc1-c1cc(NC2=NC[C@@]3(CN4CCC3CC4)O2)ncn1 [Example 333, (R)—N-(6-(1-Methyl-1H-pyrazol-5-yl)pyrimidin-4-yl)-4H-1′-azaspiro[oxazole-5,3′-bicyclo[2.2.2]octan]-2-amine] | < 100 nM | 

Row | SMILES | EC50 [1, 3] | also measured
19 | c1cnc(-c2cc(NC3=NC[C@@]4(CN5CCC4CC5)O3)ncn2)cn1 [Example 334, (R)—N-(6-(Pyrazin-2-yl)pyrimidin-4-yl)-4H-1′-azaspiro[oxazole-5,3′-bicyclo[2.2.2]octan]-2-amine] | < 100 nM | 
20 | Cc1cc2cnc(NC3=NC[C@@]4(CN5CCC4CC5)O3)cc2cc1C [Example 335, (2R)—N-(6,7-Dimethyl-3-isoquinolinyl)-4′H-spiro[4-azabicyclo[2.2.2]octane-2,5′-[1,3]oxazol]-2′-amine] | 100 to 1000 nM | EC50 [1, 4]: 104 nM
21 | Cc1ccc2nc(NC3=NC[C@@]4(CN5CCC4CC5)O3)oc2c1 [Example 336, (2R)—N-(6-Methyl-1,3-benzoxazol-2-yl)-4′H-spiro[4-azabicyclo[2.2.2]octane-2,5′-[1,3]oxazol]-2′-amine] | < 100 nM | 
22 | COc1ccc2nc(NC3=NC[C@@]4(CN5CCC4CC5)O3)oc2c1 [Example 337, (2R)—N-(6-Methoxy-1,3-benzoxazol-2-yl)-4′H-spiro[4-azabicyclo[2.2.2]octane-2,5′-[1,3]oxazol]-2′-amine] | 100 to 1000 nM | 
23 | Clc1cccc2cnc(NC3=NC[C@@]4(CN5CCC4CC5)O3)cc12 [Example 338A, (R)—N-(5-chloroisoquinolin-3-yl)-4H-1′-azaspiro[oxazole-5,3′-bicyclo[2.2.2]octan]-2-amine] | < 100 nM | 
24 | Clc1ccc2cc(NC3=NC[C@@]4(CN5CCC4CC5)O3)ncc2c1 [Example 338B, (R)—N-(7-chloroisoquinolin-3-yl)-4H-1′-azaspiro[oxazole-5,3′-bicyclo[2.2.2]octan]-2-amine] | < 100 nM | 
25 | Clc1cnc2nc(NC3=NC[C@@]4(CN5CCC4CC5)O3)sc2c1 [Example 339, (R)—N-(6-Chlorothiazolo[4,5-b]pyridin-2-yl)-4H-1′-azaspiro[oxazole-5,3′-bicyclo[2.2.2]octan]-2-amine] | < 100 nM | 
26 | Fc1ccc2nc(NC3=NC[C@@]4(CN5CCC4CC5)O3)sc2n1 [Example 340, (R)—N-(5-Fluorothiazolo[5,4-b]pyridin-2-yl)-4H-1′-azaspiro[oxazole-5,3′-bicyclo[2.2.2]octan]-2-amine] | < 100 nM | 
27 | Cc1cnc2nc(NC3=NC[C@@]4(CN5CCC4CC5)O3)sc2n1 [Example 341, (R)—N-(6-methylthiazolo[5,4-b]pyrazin-2-yl)-4H-1′-azaspiro[oxazole-5,3′-bicyclo[2.2.2]octan]-2-amine] | < 100 nM | 
28 | COc1cc2cnc(NC3=NC[C@@]4(CN5CCC4CC5)O3)cc2cc1OC [Example 342, (R)—N-(6,7-dimethoxyisoquinolin-3-yl)-4H-1′-azaspiro[oxazole-5,3′-bicyclo[2.2.2]octan]-2-amine] | 1000 to 100000 nM | EC50 [1]: 1600 nM
29 | c1nc(NC2=NC[C@@]3(CN4CCC3CC4)O2)cc2c1CCCC2 [Example 343, (R)—N-(5,6,7,8-Tetrahydroisoquinolin-3-yl)-4H-1′-azaspiro[oxazole-5,3′-bicyclo[2.2.2]octan]-2-amine] | < 100 nM | 
30 | COc1cc2cnc(NC3=NC[C@@]4(CN5CCC4CC5)O3)cc2cc1Cl [Example 344, (R)—N-(6-Chloro-7-methoxyisoquinolin-3-yl)-4H-1′-azaspiro[oxazole-5,3′-bicyclo[2.2.2]octan]-2-amine] | < 100 nM | 
31 | Fc1cccc2cnc(NC3=NC[C@@]4(CN5CCC4CC5)O3)cc12 [Example 345, (R)—N-(5-Fluoroisoquinolin-3-yl)-4H-1′-azaspiro[oxazole-5,3′-bicyclo[2.2.2]octan]-2-amine] | < 100 nM | 
32 | Fc1ccc(Br)c2cnc(NC3=NC[C@@]4(CN5CCC4CC5)O3)cc12 [Example 346, (R)—N-(8-Bromo-5-fluoroisoquinolin-3-yl)-4H-1′-azaspiro[oxazole-5,3′-bicyclo[2.2.2]octan]-2-amine] | 100 to 1000 nM | EC50 [1, 4]: 310 nM
33 | c1cn(-c2cc(NC3=NC[C@@]4(CN5CCC4CC5)O3)ncn2)cn1 [Example 347, (R)—N-(6-(1H-imidazol-1-yl)pyrimidin-4-yl)-4H-1′-azaspiro[oxazole-5,3′-bicyclo[2.2.2]octan]-2-amine] | < 100 nM | 
34 | Cc1cn(-c2cc(NC3=NC[C@@]4(CN5CCC4CC5)O3)ncn2)cn1 [Example 348, (R)—N-(6-(4-Methyl-1H-imidazol-1-yl)pyrimidin-4-yl)-4H-1′-azaspiro[oxazole-5,3′-bicyclo[2.2.2]octan]-2-amine] | < 100 nM | 
35 | Clc1cn(-c2cc(NC3=NC[C@@]4(CN5CCC4CC5)O3)ncn2)cn1 [Example 349, (R)—N-(6-(4-Chloro-1H-imidazol-1-yl)pyrimidin-4-yl)-4H-1′-azaspiro[oxazole-5,3′-bicyclo[2.2.2]octan]-2-amine] | < 100 nM | 
36 | c1nc(NC2=NC[C@@]3(CN4CCC3CC4)O2)cc(-n2cncn2)n1 [Example 351, (R)—N-(6-(1H-1,2,4-triazol-1-yl)pyrimidin-4-yl)-4H-1′-azaspiro[oxazole-5,3′-bicyclo[2.2.2]octan]-2-amine] | < 100 nM | 
